Among the data in patent US9795650B2, “Romidepsin formulations and uses thereof” (Celgene Corporation, priority 2013, dated 2017) are Solubility in water values, retold here.

The series is described as follows: Solubility of romidepsin in solvents. In kind it is physicochemical. The text has this:
In one embodiment, the romidepsin liquid concentrate for dilution is formulated in a solvent system. […] Solubility of romidepsin was studied in the following solvents and solvent mixtures: glycerin:EtOH (1:1); PEG 300; PEG 400; Tween 80:EtOH (1:1); dimethylacetamide (DMA); SolutolHS15:EtOH (1:1); NMP; Water; EtOH:PEG 400 (1:1); EtOH;water (4:6); EtOH; EtOH:PG (80:20); EtOH:PG (60:40); EtOH:PG (40:60); EtOH:PG (20:80); PG; EtOH:PG (40:60)+10% water; EtOH:PG (40:60)+butylated hydroxyanizole (BHA)/butylated hydroxytoluebe (BHT); and EtOH:PG (40:60)+ascorbic acid.

As to `C/C=C1\NC(=O)[C@H]2CSSCC/C=C/[C@H](CC(=O)N[C@H](C(C)C)C(=O)N2)OC(=O)[C@H](C(C)C)NC1=O` [Romidepsin], the Solubility in water entry was “practically insoluble in water”.
